Results published in US5654451A, “Amino acids and peptides having modified C-terminals and modified N-terminals” (Magainin Pharmaceuticals Inc., priority 1995, dated 1997).

Experiments:
Assay in all cases: Antimicrobial assay (MIC, microtiter broth dilution)
Type in all cases: cell-based
[1] = system: P. aeruginosa; details: for MIC P aeruginosa: Table I, P. aeruginosa ATCC 27853; for MIC Psuedo: Table VI
Procedure: (§1) The procedure for the antimicrobial assay is based upon the guidelines of the National Committee for Clinical Laboratory Standards, Document M7-T2, Volume 8, No. 8, 1988.
(§2) 1-5×10^5 CFUs/ml of either S. aureus ATCC 25923, E. coli ATCC 25922, P. aeruginosa ATCC 27853, or C. albicans were added to the wells in full strength Mueller Hinton broth (BBL 11443) from a mid-log culture. The inoculum is standardized spectrophotometrically at 600 nm and is verified by colony counts. The plates are incubated for 16-20 hours at 37° C., and the minimal inhibitory concentrations (MIC) for the compounds are determined. Minimal inhibitory concentration is defined as the lowest concentration of amino acid or peptide which produces a clear well in the microtiter plate.

[2] = system: E. coli
Procedure: as §1, §2

[3] = system: C. albicans; details: for MIC C. albicans: Table I; for MIC Candida: Table VI
Procedure: as §1, §2

[4] = system: S. aureus; details: for MIC S. aureus: Table I, S. aureus ATCC 25923; for MIC Staph: Table VI
Procedure: as §1, §2

Row | Substance | MIC P aeruginosa [1] | MIC E. coli ([2]; Table I, E. coli ATCC 25922) | MIC C. albicans [3] | MIC S. aureus [4] | MIC Psuedo [1] | MIC E. coli ([2]; Table VI) | MIC Candida [3] | MIC Staph [4]
1 | N-α-amidino phenylalanyl tetradecylamide [Compound 33] | > 256 µg/mL | 128 µg/mL | 16 µg/mL | 8 µg/mL |  |  |  | 
2 | N-α-amidino-phenylalanyl dodecylamide [Compound 31] | 64 µg/mL | 8 µg/mL | 4 µg/mL | 2 µg/mL |  |  |  | 
3 | p-Guanidino methyl-benzoyl dioctylamide [Compound 72] |  |  |  |  | 64 µg/mL | 4 µg/mL | 0.5 µg/mL | 1 µg/mL
4 | phenylalanyl heptylamide [Compound 26] | > 256 µg/mL | 128 µg/mL | 128 µg/mL | 256 µg/mL |  |  |  | 
5 | β-Guanidino-propionyl adamantanamide [Compound 82] |  |  |  |  | > 256 µg/mL | > 256 µg/mL | > 256 µg/mL | 64 µg/mL
6 | β-Guanidino-propionyl dioctylamide [Compound 75] |  |  |  |  | 16 µg/mL | 4 to 8 µg/mL | 1.0 µg/mL | 0.5 to 1.0 µg/mL
7 | β-Guanidino-propionyl dodecylamide [Compound 37] |  |  |  |  | 16 µg/mL | 4 to 8 µg/mL | 4 µg/mL | 1 µg/mL
8 | γ-Guanidino-butyryl dioctylamide [Compound 71] |  |  |  |  | 32 µg/mL | 4 µg/mL | < 0.25 µg/mL | 0.5 to 1.0 µg/mL
